Experimental data published in patent publication US7985765B2, “Therapeutic substituted pyrroles” (Allergan, Inc., priority 2008, dated 2011).

Tests used:
EP2 [1] = biological target: T1, EP2 (Homo sapiens, UniProt P43116); assay: EP2 binding (Ki)
From the text: (§1) US 2007/0129552, incorporated by reference herein, describes the methods used to obtain the in vitro data in the table below.

EP2 [2] = biological target: T1, EP2; assay: EP2 cAMP assay; assay type: cell-based
From the text: as §1

EP4 = EP4 (Homo sapiens, UniProt P35408); assay: EP4 binding (Ki)
From the text: as §1

hDP = biological target: T2, hDP (Homo sapiens, UniProt Q13258); assay: Other receptors functional assay, hDP; assay type: cell-based
T2 sequence (Q13258 1-359): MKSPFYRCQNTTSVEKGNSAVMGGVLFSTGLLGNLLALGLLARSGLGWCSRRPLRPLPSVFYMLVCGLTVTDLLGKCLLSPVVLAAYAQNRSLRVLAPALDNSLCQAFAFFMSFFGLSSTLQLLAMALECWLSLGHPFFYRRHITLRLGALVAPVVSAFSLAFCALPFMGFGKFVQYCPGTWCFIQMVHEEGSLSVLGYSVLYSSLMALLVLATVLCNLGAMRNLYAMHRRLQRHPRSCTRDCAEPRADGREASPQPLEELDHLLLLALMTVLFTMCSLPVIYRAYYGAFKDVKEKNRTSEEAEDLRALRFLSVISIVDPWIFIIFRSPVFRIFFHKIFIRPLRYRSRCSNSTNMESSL
From the text: as §1

EP2 [3] = biological target: T1, EP2; assay: EP2 flipr functional assay; assay type: cell-based
From the text: as §1

T1 sequence (P43116 whole entry): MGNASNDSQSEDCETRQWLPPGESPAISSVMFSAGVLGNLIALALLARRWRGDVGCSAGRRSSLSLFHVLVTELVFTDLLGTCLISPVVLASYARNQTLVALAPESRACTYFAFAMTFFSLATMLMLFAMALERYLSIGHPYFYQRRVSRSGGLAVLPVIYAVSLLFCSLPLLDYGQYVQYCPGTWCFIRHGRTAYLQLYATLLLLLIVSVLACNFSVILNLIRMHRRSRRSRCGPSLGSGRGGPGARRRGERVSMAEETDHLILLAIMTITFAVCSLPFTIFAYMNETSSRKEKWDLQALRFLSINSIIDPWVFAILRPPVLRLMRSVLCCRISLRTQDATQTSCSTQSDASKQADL
EP4, sequence (P35408 whole entry): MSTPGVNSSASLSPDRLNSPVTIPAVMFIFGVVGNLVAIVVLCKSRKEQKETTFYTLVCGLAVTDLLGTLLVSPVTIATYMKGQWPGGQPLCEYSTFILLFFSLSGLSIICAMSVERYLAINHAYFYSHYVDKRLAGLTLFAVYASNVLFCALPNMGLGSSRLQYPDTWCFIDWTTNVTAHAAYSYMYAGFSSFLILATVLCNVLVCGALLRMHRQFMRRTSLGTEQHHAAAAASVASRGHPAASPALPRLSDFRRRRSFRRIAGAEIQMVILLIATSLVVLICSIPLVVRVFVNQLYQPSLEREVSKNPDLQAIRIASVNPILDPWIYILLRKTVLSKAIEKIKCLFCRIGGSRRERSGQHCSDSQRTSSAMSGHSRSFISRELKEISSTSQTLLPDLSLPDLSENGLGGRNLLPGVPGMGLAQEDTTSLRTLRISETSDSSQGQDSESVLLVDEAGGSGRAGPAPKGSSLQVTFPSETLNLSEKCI

SMILES: CCCCCCc1ccc(-n2cccc2CCCc2ccc(C(=O)O)s2)cc1 [Example 1, 5-(3-(1-(4-hexylphenyl)-1H-pyrrol-2-yl)propyl)thiophene-2-carboxylic acid]
- Ki (EP2 [1]): 46 nM
- EC50 (EP2 [2]): 0.7 nM
- Ki (EP4): 3980 nM
- EC50 (hDP): 2190 nM
- EC50 (EP2 [3]): 2820 nM
